Laboratory results as given in the supplement of paper PMC11061612.

Key:
Lapatinib = compound: CS(=O)(=O)CCNCc1ccc(-c2ccc3ncnc(Nc4ccc(OCc5cccc(F)c5)c(Cl)c4)c3c2)o1 [Lapatinib]; details: max 10 µM
Method in brief: (§1)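 Viability was measured with CellTiter-Glo 2.0 luminescence after 72 hours of dosing at a final DMSO of typically 0.2%, and scaled between blank-well and DMSO-well means. Beforehand, cancer cell lines sat 24 hours at 37°C and 5% CO2 in 1536-well plates in 7.5 μl DMEM/F12 or RPMI with 10% FBS. A non-linear mixed effects model fitted two-parameter logistic curves to the dose responses. The single-agent IC50 comes from these fits.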

AZD8186 = compound: C[C@@H](Nc1cc(F)cc(F)c1)c1cc(C(=O)N(C)C)cc2c(=O)cc(N3CCOCC3)oc12 [AZD8186]; details: max 3 µM
Method in brief: as §1

AZD4320 = compound: CN(CC[C@H](CSC1=CC=CC=C1)NC2=C(C=C(C=C2)S(=O)(=O)NC(=O)C3=CC=C(C=C3)N4CCC(CC4)[C@H](C5=CC=CC=C5C6=CC=C(C=C6)Cl)O)S(=O)(=O)C(F)(F)F)CCO [AZD4320]; details: max 1 µM
Method in brief: as §1

Olaparib = compound: O=C(c1cc(Cc2n[nH]c(=O)c3ccccc23)ccc1F)N1CCN(C(=O)C2CC2)CC1 [Olaparib]
Method in brief: as §1

SN-38 = compound: CCc1c2c(nc3ccc(O)cc13)-c1cc3c(c(=O)n1C2)COC(=O)[C@]3(O)CC [SN-38]; details: max 0.3 µM
Method in brief: as §1

SG3199 = compound: CC1=CN2[C@@H](C1)C=NC3=CC(=C(C=C3C2=O)OC)OCCCCCOC4=C(C=C5C(=C4)N=C[C@@H]6CC(=CN6C5=O)C)OC [SG3199]; details: max 0.001 µM
Method in brief: as §1

Taselisib = compound: Cc1nc(-c2cn3c(n2)-c2ccc(-c4cnn(C(C)(C)C(N)=O)c4)cc2OCC3)n(C(C)C)n1 [Taselisib]; details: max 10 µM
Method in brief: as §1

Trametinib = compound: CC(=O)Nc1cccc(-n2c(=O)n(C3CC3)c(=O)c3c(Nc4ccc(I)cc4F)n(C)c(=O)c(C)c32)c1 [Trametinib]; details: max 1 µM
Method in brief: as §1

Capivasertib = compound: C1CN(CCC1(C(=O)N[C@@H](CCO)C2=CC=C(C=C2)Cl)N)C3=NC=NC4=C3C=CN4 [Capivasertib]; details: max 10 µM
Method in brief: as §1

Savolitinib = compound: C[C@@H](c1ccc2nccn2c1)n1nnc2ncc(-c3cnn(C)c3)nc21 [Savolitinib]; details: max 1 µM
Method in brief: as §1

Gefitinib = compound: COc1cc2ncnc(Nc3ccc(F)c(Cl)c3)c2cc1OCCCN1CCOCC1 [Gefitinib]; details: max 10 µM
Method in brief: as §1

Selumetinib = compound: Cn1cnc2c(F)c(Nc3ccc(Br)cc3Cl)c(C(=O)NOCCO)cc21 [Selumetinib]; details: max 10 µM
Method in brief: as §1

AZD0156 = compound: CN(C)CCCOc1ccc(-c2ccc3ncc4c(c3c2)n(C2CCOCC2)c(=O)n4C)cn1 [AZD0156]; details: max 3 µM
Method in brief: as §1

Doxorubicin = compound: COc1cccc2c1C(=O)c1c(O)c3c(c(O)c1C2=O)C[C@@](O)(C(=O)CO)C[C@@H]3O[C@H]1C[C@H](N)[C@H](O)[C@H](C)O1 [Doxorubicin]; details: max 1 µM
Method in brief: as §1

Dasatinib = compound: CC1=C(C(=CC=C1)Cl)NC(=O)C2=CN=C(S2)NC3=CC(=NC(=N3)C)N4CCN(CC4)CCO [Dasatinib]; details: max 2 µM
Method in brief: as §1

AZD1390 = compound: CC(C)n1c(=O)n(C)c2cnc3cc(F)c(-c4ccc(OCCCN5CCCCC5)nc4)cc3c21 [AZD1390]; details: max 0.3 µM
Method in brief: as §1

Palbociclib = compound: CC(=O)c1c(C)c2cnc(Nc3ccc(N4CCNCC4)cn3)nc2n(C2CCCC2)c1=O [Palbociclib]; details: max 10 µM
Method in brief: as §1

Prexasertib = compound: COc1cccc(OCCCN)c1-c1cc(Nc2cnc(C#N)cn2)n[nH]1 [Prexasertib]; details: max 1 µM
Method in brief: as §1

Crizotinib = compound: C[C@@H](Oc1cc(-c2cnn(C3CCNCC3)c2)cnc1N)c1c(Cl)ccc(F)c1Cl [Crizotinib]; details: max 10 µM
Method in brief: as §1

Venetoclax = compound: CC1(C)CCC(CN2CCN(c3ccc(C(=O)NS(=O)(=O)c4ccc(NCC5CCOCC5)c([N+](=O)[O-])c4)c(Oc4cnc5[nH]ccc5c4)c3)CC2)=C(c2ccc(Cl)cc2)C1 [Venetoclax]; details: max 1 µM
Method in brief: as §1

AZD2811 = compound: CCN(CCO)CCCOc1ccc2c(Nc3cc(CC(=O)Nc4cccc(F)c4)[nH]n3)ncnc2c1 [AZD2811]; details: max 1 µM
Method in brief: as §1

AZD6738 = compound: C[C@@H]1COCCN1C2=NC(=NC(=C2)C3(CC3)[S@](=N)(=O)C)C4=C5C=CNC5=NC=C4 [AZD6738]; details: max 10 µM
Method in brief: as §1

AZD5991 = compound: Cc1c2c(nn1C)CSCc1cc(n(C)n1)CSc1cc(c3ccccc3c1)OCCCc1c(C(=O)O)n(C)c3c-2c(Cl)ccc13 [AZD5991]; details: max 1 µM
Method in brief: as §1

AZD1775 = compound: C=CCn1c(=O)c2cnc(Nc3ccc(N4CCN(C)CC4)cc3)nc2n1-c1cccc(C(C)(C)O)n1 [AZD1775]; details: max 3 µM
Method in brief: as §1

AZD5153 = compound: COc1nnc2ccc(N3CCC(c4ccc(OCCN5CCN(C)C(=O)[C@H]5C)cc4)CC3)nn12 [AZD5153]; details: max 1 µM
Method in brief: as §1

Alisertib = compound: COc1cc(Nc2ncc3c(n2)-c2ccc(Cl)cc2C(c2c(F)cccc2OC)=NC3)ccc1C(=O)O [Alisertib]; details: max 10 µM
Method in brief: as §1

AZD7648 = compound: Cc1cc2ncnn2cc1Nc1ncc2c(n1)n(C1CCOCC1)c(=O)n2C [AZD7648]; details: max 10 µM
Method in brief: as §1

MK-2206 = compound: NC1(c2ccc(-c3nc4ccn5c(=O)[nH]nc5c4cc3-c3ccccc3)cc2)CCC1 [MK-2206]; details: max 10 µM
Method in brief: as §1

Cell Line | IC50, cell viability 72 h (Lapatinib) [µM] | IC50, cell viability 72 h (AZD8186) [µM] | IC50, cell viability 72 h (AZD4320) [µM] | IC50, cell viability 72 h (Olaparib; max 10 µM) [µM] | IC50, cell viability 72 h (SN-38) [µM] | IC50, cell viability 72 h (SG3199) [µM] | IC50, cell viability 72 h (Taselisib) [µM] | IC50, cell viability 72 h (Trametinib) [µM] | IC50, cell viability 72 h (Capivasertib) [µM] | IC50, cell viability 72 h (Savolitinib) [µM] | IC50, cell viability 72 h (Gefitinib) [µM] | IC50, cell viability 72 h (Selumetinib) [µM] | IC50, cell viability 72 h (AZD0156) [µM] | IC50, cell viability 72 h (Doxorubicin) [µM] | IC50, cell viability 72 h (Dasatinib) [µM] | IC50, cell viability 72 h (AZD1390) [µM] | IC50, cell viability 72 h (Palbociclib) [µM] | IC50, cell viability 72 h (Prexasertib) [µM] | IC50, cell viability 72 h (Crizotinib) [µM] | IC50, cell viability 72 h (Venetoclax) [µM] | IC50, cell viability 72 h (AZD2811) [µM] | IC50, cell viability 72 h (AZD6738) [µM] | IC50, cell viability 72 h (AZD5991) [µM] | IC50, cell viability 72 h (AZD1775) [µM] | IC50, cell viability 72 h (AZD5153) [µM] | IC50, cell viability 72 h (Alisertib) [µM] | IC50, cell viability 72 h (AZD7648) [µM] | IC50, cell viability 72 h (MK-2206) [µM] | IC50, cell viability 72 h (Olaparib; max 3 µM) [µM]
KYSE-50 (Esophageal Squamous Cell Carcinoma) | > 10 | > 3 | > 1 | > 10 | > 0.3 | > 0.001 | 8.39 | > 1 | > 10 | > 1 | > 10 | > 10 | > 3 | > 1 | 0.263 | > 0.3 | > 10 | 0.108 | > 10 | > 1 | > 1 | 8.94 | > 1 | 1.82 | 0.664 | 3.86 | > 10 | – | –
KYSE-150 (Esophageal Squamous Cell Carcinoma) | 3.19 | > 3 | > 1 | > 10 | 0.117 | > 0.001 | 1.34 | 0.498 | > 10 | > 1 | > 10 | > 10 | > 3 | 0.158 | > 2 | > 0.3 | > 10 | > 1 | 4.28 | > 1 | > 1 | > 10 | > 1 | 1.15 | 0.42 | 5.85 | > 10 | > 10 | –
LOU-NH91 (Squamous Cell Lung Carcinoma) | > 10 | > 3 | > 1 | > 10 | 0.0171 | > 0.001 | 5.87 | > 1 | > 10 | > 1 | > 10 | > 10 | > 3 | 0.542 | 0.657 | > 0.3 | > 10 | > 1 | > 10 | > 1 | > 1 | > 10 | > 1 | 1.35 | 0.239 | > 10 | > 10 | – | –
MFE-319 (Endometrial Carcinoma) | > 10 | > 3 | > 1 | > 10 | > 0.3 | > 0.001 | 9.92 | > 1 | > 10 | > 1 | > 10 | > 10 | > 3 | > 1 | > 2 | > 0.3 | > 10 | 0.0515 | > 10 | > 1 | > 1 | 4.51 | > 1 | 0.74 | > 1 | > 10 | > 10 | > 10 | –
NCI-H322M (Lung Adenocarcinoma) | 7.36 | > 3 | > 1 | > 10 | 0.0987 | > 0.001 | 0.692 | 0.156 | > 10 | > 1 | 0.816 | 2.89 | > 3 | 0.735 | 1.96 | > 0.3 | > 10 | 0.0106 | > 10 | > 1 | > 1 | 1.13 | > 1 | 0.349 | 0.742 | > 10 | > 10 | – | –
PFSK-1 (Other Solid Carcinomas) | > 10 | > 3 | > 1 | – | 0.0324 | – | 0.626 | > 1 | > 10 | > 1 | > 10 | > 10 | > 3 | – | > 2 | > 0.3 | > 10 | 0.0404 | 3.07 | > 1 | > 1 | 8.13 | 0.114 | 1.06 | > 1 | > 10 | > 10 | 2.09 | > 3
RPMI-7951 (Melanoma) | > 10 | 2.73 | > 1 | > 10 | 0.0158 | > 0.001 | 2.35 | 0.136 | 3.38 | > 1 | > 10 | > 10 | > 3 | 0.173 | 0.13 | > 0.3 | > 10 | 0.0194 | 5.75 | > 1 | > 1 | 2.25 | 0.488 | 0.489 | 0.63 | 2.14 | > 10 | – | –
SCC-3 (B-Cell Non-Hodgkin's Lymphoma) | > 10 | > 3 | > 1 | > 10 | 0.0061 | > 0.001 | > 10 | > 1 | > 10 | > 1 | > 10 | > 10 | > 3 | 0.386 | > 2 | > 0.3 | > 10 | 0.0176 | 0.717 | > 1 | > 1 | 1.07 | > 1 | 0.37 | 0.0674 | 0.721 | > 10 | – | –
